# What was measured:
# [1] = test system: Mycobacterium kansasii; test: Antimycobacterial activity against Mycobacterium kansasii 6509/96 after 21 days; type: functional; conditions: 6509/96, 504 h
# [2] = test system: Mycolicibacterium smegmatis; test: Antimycobacterial activity against Mycobacterium smegmatis DSM 43465 after 120 hr by resazurin dye based microdilution method; type: functional; conditions: DSM 43465, 120 h
# [3] = test system: Mycobacterium kansasii; test: Antimycobacterial activity against Mycobacterium kansasii 235/80 after 7 days; type: functional; conditions: 235/80, 168 h
# [4] = test system: Mycobacterium kansasii; test: Antimycobacterial activity against Mycobacterium kansasii 6509/96 after 14 days; type: functional; conditions: 6509/96, 336 h
# [5] = test system: Mycobacterium kansasii; test: Antimycobacterial activity against Mycobacterium kansasii 235/80 after 14 days; type: functional; conditions: 235/80, 336 h
# [6] = in vitro; conditions: human, HepG2 cells
# Description: Selectivity index, ratio of IC50 for human HepG2 cells to MIC for antimycobacterial activity against Mycobacterium tuberculosis H37Rv
# [7] = test system: Mycobacterium avium; test: Antimycobacterial activity against Mycobacterium avium 330/88 after 21 days; type: functional; conditions: 330/88, 504 h
# [8] = test system: Mycobacterium avium; test: Antimycobacterial activity against Mycobacterium avium 330/88 after 14 days; type: functional; conditions: 330/88, 336 h
# [9] = test system: Mycobacterium kansasii; test: Antimycobacterial activity against Mycobacterium kansasii 235/80 after 21 days; type: functional; conditions: 235/80, 504 h
# [10] = test system: Mycobacterium kansasii; test: Antimycobacterial activity against Mycobacterium kansasii 6509/96 after 7 days; type: functional; conditions: 6509/96, 168 h
# [11] = test system: HepG2; test: Cytotoxicity against human HepG2 cells assessed as reduction in cell viability after overnight incubation by MTT assay; type: cell-based
# [12] = test system: Mycobacterium tuberculosis; type: functional; conditions: H37Rv 331/88, 336 h
# [13] = test system: Mycobacterium tuberculosis H37Rv; test: Inhibition of recombinant Mycobacterium tuberculosis H37Rv ICL1 expressed in Escherichia coli BL21 (DE3) cells at 10 uM using (+)-potassium Ds-threo-isocitrate as substrate by glyoxylate phenyl hydrazone formation assay relative to control
# [14] = test system: Mycobacterium tuberculosis; type: functional; conditions: H37Rv 331/88, 504 h
# [15] = test system: HepG2; test: Cytostatic activity against human HepG2 cells preincubated for overnight in serum free medium followed by compound wash out and further incubated for 72 hrs in presence of serum by MTT assay; type: ADME, cell-based
# [16] = test system: Mycolicibacterium aurum; test: Antimycobacterial activity against Mycobacterium aurum DSM 43999 after 72 hr by resazurin dye based microdilution method; type: functional; conditions: DSM 43999, 72 h
# [17] = test system: Mycobacterium tuberculosis; test: Antimycobacterial activity against Mycobacterium tuberculosis H37Ra ITM-M006710 after 48 hr by resazurin dye based microdilution method; type: functional; conditions: H37Ra ITM-M006710, 48 h
smiles,measurement,setting,value
O=C(NCc1ccccc1)Oc1ccc(Cl)cc1,MIC,[1],500 µM
same,MIC,[2],152 µg/mL
same,MIC,[3],125 µM
same,MIC,[4],250 µM
same,MIC,[5],250 µM
same,selectivity ratio,[6],> 0.5
same,MIC,[7],500 µM
same,MIC,[8],500 µM
same,MIC,[9],500 µM
same,MIC,[10],125 µM
same,IC50,[11],> 125 µM
same,MIC,[12],125 µM
same,inhibition,[13],14%
same,MIC,[14],250 µM
same,IC50,[15],> 125 µM
same,MIC,[16],125 µg/mL
same,MIC,[17],31.2 µg/mL
CO[C@H]1/C=C/O[C@@]2(C)Oc3c(C)c(O)c4c(O)c(c(/C=N/N5CCN(C)CC5)c(O)c4c3C2=O)NC(=O)/C(C)=C\C=C\[C@H](C)[C@H](O)[C@@H](C)[C@@H](O)[C@@H](C)[C@H](OC(C)=O)[C@@H]1C [RIFAMPIN],MIC,[2],12.5 to 25 µg/mL
same,MIC,[16],0.47 µM
same,MIC,[17],0.0005 to 0.009 µM
O=C(Nc1ccccc1)Oc1ccccc1C(=O)Nc1ccccc1,MIC,[1],250 µM
same,MIC,[2],31.2 µg/mL
same,MIC,[3],125 µM
same,MIC,[4],250 µM
same,MIC,[5],250 µM
same,selectivity ratio,[6],0.5
same,MIC,[7],125 µM
same,MIC,[8],125 µM
same,MIC,[9],250 µM
same,MIC,[10],125 µM
same,IC50,[11],57.6 µM
same,MIC,[12],125 µM
same,inhibition,[13],5%
same,MIC,[14],125 µM
same,IC50,[15],26.8 µM
same,MIC,[16],31.2 µg/mL
same,MIC,[17],31.2 µg/mL
CC[C@@H](CO)NCCN[C@@H](CC)CO [ETHAMBUTOL],MIC,[2],1.8 µM
same,MIC,[16],0.9 µM
same,MIC,[17],1.8 µM
O=C(Nc1ccccc1)Oc1ccc(Cl)cc1,MIC,[1],500 µM
same,MIC,[2],15.6 µg/mL
same,MIC,[3],125 µM
same,MIC,[4],250 µM
same,MIC,[5],250 µM
same,selectivity ratio,[6],> 0.3
same,MIC,[7],1000 µM
same,MIC,[8],500 µM
same,MIC,[9],500 µM
same,MIC,[10],125 µM
same,IC50,[11],> 125 µM
same,MIC,[12],250 µM
same,inhibition,[13],14%
same,MIC,[14],500 µM
same,IC50,[15],> 125 µM
same,MIC,[16],15.6 µg/mL
same,MIC,[17],7.81 µg/mL
O=C(NC12CC3CC(CC(C3)C1)C2)Oc1ccccc1C(=O)Nc1ccccc1,MIC,[1],250 µM
same,MIC,[2],250 µg/mL
same,MIC,[3],125 µM
same,MIC,[4],250 µM
same,MIC,[5],125 µM
same,selectivity ratio,[6],> 2
same,MIC,[7],125 µM
same,MIC,[8],125 µM
same,MIC,[9],125 µM
same,MIC,[10],125 µM
same,IC50,[11],> 250 µM
same,MIC,[12],125 µM
same,inhibition,[13],9%
same,MIC,[14],125 µM
same,IC50,[15],233 µM
same,MIC,[16],≥ 250 µg/mL
same,MIC,[17],250 µg/mL
O=C(NCCc1ccccc1)Oc1ccc(Cl)cc1,MIC,[1],500 µM
same,MIC,[2],62.5 µg/mL
same,MIC,[3],125 µM
same,MIC,[4],250 µM
same,MIC,[5],250 µM
same,selectivity ratio,[6],> 0.5
same,MIC,[7],500 µM
same,MIC,[8],250 µM
same,MIC,[9],500 µM
same,MIC,[10],125 µM
same,IC50,[11],> 125 µM
same,MIC,[12],250 µM
same,inhibition,[13],12%
same,MIC,[14],250 µM
same,IC50,[15],> 250 µM
same,MIC,[16],125 µg/mL
same,MIC,[17],31.2 µg/mL
NNC(=O)c1ccncc1 [ISONIAZID],MIC,[1],8 µM
same,MIC,[2],15.6 µg/mL
same,MIC,[3],> 250 µM
same,MIC,[4],8 µM
same,MIC,[5],> 250 µM
same,selectivity ratio,[6],> 250
same,MIC,[7],> 250 µM
same,MIC,[8],> 250 µM
same,MIC,[9],> 250 µM
same,MIC,[10],4 µM
same,IC50,[11],> 250 µM
same,MIC,[12],0.5 µM
same,inhibition,[13],0%
same,MIC,[14],1 µM
same,MIC,[16],3.91 µg/mL
same,MIC,[17],0.91 to 1.82 µM
O=C(NCc1ccccc1)Oc1ccccc1C(=O)Nc1ccccc1,MIC,[1],250 µM
same,MIC,[2],31.2 µg/mL
same,MIC,[3],125 µM
same,MIC,[4],250 µM
same,MIC,[5],250 µM
same,selectivity ratio,[6],> 1
same,MIC,[7],125 µM
same,MIC,[8],125 µM
same,MIC,[9],250 µM
same,MIC,[10],125 µM
same,IC50,[11],> 125 µM
same,MIC,[12],125 µM
same,inhibition,[13],8%
same,MIC,[14],125 µM
same,IC50,[15],54.3 µM
same,MIC,[16],31.2 µg/mL
same,MIC,[17],15.6 µg/mL
O=C(NC1CCCCC1)Oc1ccccc1C(=O)Nc1ccccc1,MIC,[1],250 µM
same,MIC,[2],15.6 µg/mL
same,MIC,[3],125 µM
same,MIC,[4],250 µM
same,MIC,[5],250 µM
same,selectivity ratio,[6],0.4
same,MIC,[7],125 µM
same,MIC,[8],125 µM
same,MIC,[9],250 µM
same,MIC,[10],125 µM
same,IC50,[11],49 µM
same,MIC,[12],125 µM
same,inhibition,[13],8%
same,MIC,[14],125 µM
same,IC50,[15],51.5 µM
same,MIC,[16],15.6 µg/mL
same,MIC,[17],15.6 µg/mL

# Reference: ChEMBL document CHEMBL4406824, “Phenolic N-monosubstituted carbamates: Antitubercular and toxicity evaluation of multi-targeting compounds” (Eur J Med Chem, 2019)
